# In patent US9353152B2, “Induction of the mitochondrial permeability transition” (NewSouth Innovations Pty Limited, priority 2002, dated 2016):
# Values joined by “and” are separate entries in the source; they are usually repeats but may differ in a detail not shown here. Equal entries are not always repeated.
# Columns and labels:
# [1] = tested on: human pancreatic carcinoma BxPC-3 cells; assay: Cell proliferation and viability assay (MTT); assay type: cell-based; conditions: Homo sapiens, BXPC-3; 10% serum, 48 h; read-out: IC50 for proliferation arrest of BxPC-3 cells
# Description: (§1) BAE or human pancreatic carcinoma BxPC-3 cells were seeded at a density of 10^3 cells per well into 96 well plates in DMEM containing 10% foetal bovine serum and allowed to adhere for 24 h. Cells were washed and incubated with DMEM containing 10% foetal bovine serum and GSAO or o-GSAO and cultured for a further 48 h. Some BAE cells were arrested for 24 h in medium containing 0.25% serum and cultured for a further 48 h in medium containing 0.25% or 10% serum, in the presence of GSAO or o-GSAO. Viable attached cells were determined using MTT.
# [2] = biological target: T1, mitochondrial permeability transition pore (Rattus norvegicus, UniProt Q09073); assay type: biochemical; conditions: for a given concentration
# T1 construct: Mitochondria were isolated from the livers of ˜250 g male Wistar rats; from tissue; host or cells: rat liver mitochondria (male Wistar rats)
# T1 sequence (Q09073 2-298 limits assumed): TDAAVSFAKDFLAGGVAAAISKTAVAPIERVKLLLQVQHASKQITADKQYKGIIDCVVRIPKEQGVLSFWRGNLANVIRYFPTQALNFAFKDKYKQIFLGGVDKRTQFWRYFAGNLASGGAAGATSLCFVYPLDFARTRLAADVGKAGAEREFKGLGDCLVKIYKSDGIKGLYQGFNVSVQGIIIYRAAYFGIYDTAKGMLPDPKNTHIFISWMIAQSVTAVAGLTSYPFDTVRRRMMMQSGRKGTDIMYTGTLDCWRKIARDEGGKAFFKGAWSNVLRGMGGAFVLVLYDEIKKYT
# MPTP = biological target: T2, MPTP (Rattus norvegicus, UniProt Q09073); assay type: biochemical
# T2 construct: Mitochondria were isolated from the livers of ˜250 g male Wistar rats; from tissue; host or cells: rat liver mitochondria (male Wistar rats)
# T2 sequence (Q09073 2-298 limits assumed): T1 sequence (Q09073 2-298 limits assumed)
# [3] = Side-effects in Balb-C nude mice bearing BxPC-3 tumours; assay type: in vivo
# Description: Female 7 to 9 week old Balb C nude were used (UNSW Biological Resource Centre). Mice were held in groups of 3 to 5 at a 12 h day and night cycle and were given animal chow and water ad libidum. A suspension of 2.5×10^6 BxPC-3 cells in 0.2 mL of PBS was injected subcutaneously in the proximal midline. Tumours were allowed to establish and grow to a size of ˜40 mm^3 after which they were randomised into four groups. Tumour volume was calculated using the relationship, a·b^2·0.52, where a is the longest and b the shortest diameter. Animals were treated with either GSAO or o-GSAO at a dose 1 or 10 mg/kg/day in 0.1 mL of PBS. The compounds were administered subcutaneously at a site distant from the tumour. Tumour volume and animal weight was measured every 2 or 3 days.
# Balb-C nude mice bearing ˜40 mm^3 BxPC-3 tumours were randomised into four groups (n=10 or 11 per group) and treated subcutaneously with either GSAO (part A) or o-GSAO (part B) at 1 or 10 mg/kg/day in 0.1 mL of PBS. Parts C and D are the mice weights for the respective groups, where the arrow indicates start of treatment. The data points are the mean±SE of the tumour volumes or mice weights. Treatment with 10 mg/kg o-GSAO (part B) was stopped at day 14 due to necrosis and inflammation at sites of injection in 7 out of 11 mice (3/11 with severe ulcers, 4/11 with medium ulcers).
# [4] = Titration of arsenoxide compounds with DTT; assay type: physicochemical; conditions: GSAO versus Compound 1
# BAE cells [5] = assay: cells; conditions: Bos taurus, read-out: IC50 (μM)*
# [6] = Toxicity of o-GSAO in Balb-C mice; assay type: in vivo
# Description: FIG. 22. Toxicity of o-GSAO. Balb-C mice (6-8 week old, 3 per group) were treated subcutaneously with 1 or 10 mg/kg/day of o-GSAO in 0.1 mL of PBS. The data points are the mean±SE of the mice weights.
# BAE cells [7] = assay: Cell proliferation and viability assay (MTT); assay type: cell-based, bovine
# Description: as §1
# BAE cells [8] = tested on: BAE cells
# ANT = biological target: T3, ANT (Rattus norvegicus, UniProt Q09073); assay: Binding of GSAO-B to ANT (streptavidin pull-down, Western blot); conditions: 100 μM GSAO-B, 1 h; competed by 4-fold molar excess of dimercaptopropanol
# T3 construct: Mitochondria were isolated from the livers of ˜250 g male Wistar rats; from tissue; host or cells: rat liver mitochondria (male Wistar rats)
# T3 sequence (Q09073 2-298 limits assumed): T1 sequence (Q09073 2-298 limits assumed)
# Description: Rat liver mitochondria were suspended at 1 mg of protein per mL at 25° C. in 3 mM HEPES-KOH, pH 7.0 buffer containing 213 mM mannitol, 71 mM sucrose and 10 mM sodium succinate and incubated with 100 μM GSAO-B in absence or presence of 400 μM 2,3-dimercaptopropanol (Fluka, Buchs, SG, Switzerland) at room temperature on a rotating wheel for 1 h. The labelled mitochondria were washed three times with PBS and sonicated in 0.3 mL of ice-cold 25 mM Tris, pH 7.4 buffer containing 140 mM NaCl, 2.7 mM KCl, 0.5% Triton X-100, 0.05% Tween-20, 10 μM leupeptin, 10 μM aprotinin, 50 μg·mL^−1 […] and 5 mM EDTA. Lysate was clarified by centrifugation at 18000 g for 10 min at 4° C. and incubated with 30 μL of streptavidin-dynabeads (Dynal, Oslo, Norway) for 60 min at 4° C. on a rotating wheel to isolate the biotin-labelled proteins. The beads were washed 5 times with sonication buffer and the biotin-labelled proteins were released from the beads by boiling in 30 μl of SDS-Laemmli buffer for 2 minutes. Samples were resolved on 8-16% gradient iGels under reducing conditions and transferred to PVDF membrane. Proteins were detected by Western blot using a 1:500 dilution of goat anti-human ANT polyclonal antibody (Santa Cruz Biotechnology, Santa Cruz, Calif.) and 1:2000 dilution of rabbit anti-goat peroxidase-conjugated antibodies (Dako, Carpinteria, Calif.).
# [9] = 10 mg/kg/day o-GSAO s.c., day 14
smiles,measurement,setting,value
"NC(CCC(=O)NC(CSCC(=O)Nc1ccccc1[As](O)O)C(=O)NCC(=O)O)C(=O)O (stereo not drawn) [Compound 1, NH2-Glu-Cys-(CH2CONH—C6H4-o-As{OH}2)-Gly-OH]",IC50,[1],~2000 nM
same,"half-time for maximal swelling, times faster compared to GSAO",[2],3-5 times
same,MPTP Swelling Rate Increase/GSAO* Mean,MPTP,16.3
same,weight loss,[3]; 10 mg/kg/day o-GSAO s.c.,some weight loss
same,mice with medium ulcers,[3]; [9],4/11
same,mice with severe ulcers,[3]; [9],3/11
same,mice with necrosis and inflammation at sites of injection,"[3]; 10 mg/kg/day o-GSAO s.c., treatment stopped at day 14",7 out of 11 and 7 of 11
same,behavioural side-effects in Balb C nude mice,[3]; 1 or 10 mg/kg/day s.c.,not observed
same,arsenical reactivity (titration with DTT),[4],no significant difference
same,IC50,BAE cells [5],0.16 µM
same,Side-effects of o-GSAO administration,"[6]; 1 mg/kg/day s.c., day 1",nil
same,Side-effects of o-GSAO administration,"[6]; 1 mg/kg/day s.c., day 2",ruffled fur; mild hyperactivity^b
same,Side-effects of o-GSAO administration,"[6]; 1 mg/kg/day s.c., day 3",ruffled fur; mild hyperactivity^b
same,Side-effects of o-GSAO administration,"[6]; 1 mg/kg/day s.c., day 4",ruffled fur; mild hyperactivity^b
same,Side-effects of o-GSAO administration,"[6]; 1 mg/kg/day s.c., day 5",ruffled fur; hyperactivity; clonic
same,Side-effects of o-GSAO administration,"[6]; 1 mg/kg/day s.c., day 6",ruffled fur; hyperactivity; clonic
same,Side-effects of o-GSAO administration,"[6]; 1 mg/kg/day s.c., day 7",ruffled fur; hyperactivity; clonic
same,Side-effects of o-GSAO administration,"[6]; 1 mg/kg/day s.c., day 8",ruffled fur; hyperactivity^b
same,Side-effects of o-GSAO administration,"[6]; 1 mg/kg/day s.c., day 9",ruffled fur; mild hyperactivity^b
same,Side-effects of o-GSAO administration,"[6]; 1 mg/kg/day s.c., day 10",ruffled fur; mild hyperactivity^b
same,Side-effects of o-GSAO administration,"[6]; 1 mg/kg/day s.c., day 11",ruffled fur; mild hyperactivity^b
same,Side-effects of o-GSAO administration,"[6]; 1 mg/kg/day s.c., day 13",nil
same,Side-effects of o-GSAO administration,"[6]; 1 mg/kg/day s.c., day 14",nil
same,Side-effects of o-GSAO administration,"[6]; 10 mg/kg/day s.c., day 1",ruffled fur; hyperactivity; mild
same,Side-effects of o-GSAO administration,"[6]; 10 mg/kg/day s.c., day 2",ruffled fur; mild hyperactivity^b
same,Side-effects of o-GSAO administration,"[6]; 10 mg/kg/day s.c., day 3",ruffled fur; mild hyperactivity^b
same,Side-effects of o-GSAO administration,"[6]; 10 mg/kg/day s.c., day 4",ruffled fur; mild hyperactivity^b
same,Side-effects of o-GSAO administration,"[6]; 10 mg/kg/day s.c., day 5",ruffled fur; hyperactivity; clonic
same,Side-effects of o-GSAO administration,"[6]; 10 mg/kg/day s.c., day 6",ruffled fur; hyperactivity; clonic
same,Side-effects of o-GSAO administration,"[6]; 10 mg/kg/day s.c., day 7",ruffled fur; hyperactivity; clonic
same,Side-effects of o-GSAO administration,"[6]; 10 mg/kg/day s.c., day 8",ruffled fur; hyperactivity^b
same,Side-effects of o-GSAO administration,"[6]; 10 mg/kg/day s.c., day 9",ruffled fur; mild hyperactivity^b
same,Side-effects of o-GSAO administration,"[6]; 10 mg/kg/day s.c., day 10",ruffled fur; mild hyperactivity^b
same,Side-effects of o-GSAO administration,"[6]; 10 mg/kg/day s.c., day 11",ruffled fur; mild hyperactivity^b
same,Side-effects of o-GSAO administration,"[6]; 10 mg/kg/day s.c., day 13",skin necrosis at the injection site
same,Side-effects of o-GSAO administration,"[6]; 10 mg/kg/day s.c., day 14",skin necrosis at the injection site
same,weight loss,"[6]; 1 or 10 mg/kg/day s.c., Balb C mice",no weight loss observed
same,skin effects with repeated injections in the same area,[6]; Balb C mice,thickening of the skin and occasional necrosis
same,times more effective than GSAO at inhibiting proliferation of BAE cells,BAE cells [7],~50 times
same,selectivity for proliferating versus growth-quiescent endothelial cells,"BAE cells [7]; 0.25% or 10% serum, 48 h",not selective for proliferating (angiogenic) endothelial cells
same,IC50,"BAE cells [7]; Bos taurus, 10% serum, 48 h, read-out: IC50 for proliferation arrest of BAE cells",160 ± 30 nM
same,Fold Increase,BAE cells [8],53.2
"O=[As]c1ccc(NC(=O)CSC[C@H](NC(=O)CC[C@H](NC(=O)CCCCCNC(=O)CCCCCNC(=O)CCCC[C@@H]2SC[C@@H]3NC(=O)N[C@@H]32)C(=O)O)C(=O)NCC(=O)O)cc1 (stereo partly shown) [GSAO-B, 4-(N—(S—(N-(6-((6-((biotinoyl)amino)hexanoyl)amino)hexanoyl)-glutathionyl)acetyl)amino) phenylarsenoxide]",labelling of ANT with GSAO-B,ANT,Direct interaction
